# Data from article PMC10730852 (Communications Biology, 2023).
# Columns and labels:
# Cph = test system: Cph; design: method as in Previous kinetic studies; conditions: ATP as a phosphate donor; ref Previous kinetic studies; read-out: Km value of Cph for CMN IIA; cited from earlier work
# Cph001^D189A = experiment: Coupled enzyme assay of Cph001 variant; assay type: biochemical, Streptosporangium roseum; conditions: for absorbance at 340 nm, Average of triplicate: 2 mM substrate + ATP
# Method: (§1) The phosphorylation reaction was measured by a coupled enzyme assay as following. The reaction 1, performed by 0.77 μM Cph001 with 2 mM antibiotic substrates (CMN IIA, CMN IIB, VIO, Kan, or Ery), was coupled to the reaction 2 and 3 in the presence of 4 U PK (pyruvate kinase from rabbit muscle, Merck), 4 U LDH (lactate dehydrogenase from rabbit muscle, Merck), 2 mM ATP or GTP, 2 mM PEP (phosphoenolpyruvate), 0.5 mM NADH, 40 mM KCl and 5 mM MgCl2 in a reaction buffer containing 400 mM NaCl and 20 mM Tris buffer at pH 8.0. The reactions were mixed well in a final volume of 200 μL in 96-well plates. The Cph001 activity was assayed by determining the oxidation of NADH at 340 nm. The reaction buffer and enzyme concentration of the Cph reaction was followed by previous study. The 340 nm absorbance changes were detected at 30 °C for every 1 min at a time in 15 min on an EPOCH Microplate Reader (BioTek). All reactions were carried out in triplicate.
# Cph001^D189N = experiment: Coupled enzyme assay of Cph001 variant; assay type: biochemical, Streptosporangium roseum; conditions: for absorbance at 340 nm, Average of triplicate: 2 mM substrate + ATP
# Method: as §1
# E. coli/cph001 = experiment: Disk diffusion assay; assay type: cell-based, E. coli BL21 Rosetta (DE3)
# Method: (§2) The E. coli BL21 Rosetta (DE3) strains containing pET22b, and its carrying cph, cph001, cph002, cph003, aph(3′)-Ia, and mphB plasmids were cultured overnight. The cells, respectively, were then diluted to 0.1 OD600 in molten LB agar with 100 μg/mL ampicillin and 500 μM IPTG for the disk diffusion assay. The cells with ampicillin and IPTG were mixed well with molten LB agar and then poured into 10 cm diameter Petri dishes. The 7 mm disks were placed onto the LB agar and gently loaded with varying quantities of CMN IIA, CMN IIB, VIO, Kan, and Ery, ranging from 0 to 200 μg. The Petri dishes were placed in the incubator at 37 °C and the inhibition zones were observed after 24 hr.
# E. coli/cph003 = experiment: Disk diffusion assay; assay type: cell-based, E. coli BL21 Rosetta (DE3)
# Method: as §2
# E. coli/cph002 = experiment: Disk diffusion assay; assay type: cell-based, E. coli BL21 Rosetta (DE3)
# Method: as §2
# E. coli/cph = experiment: Disk diffusion assay; assay type: cell-based, E. coli BL21 Rosetta (DE3)
# Method: as §2
# [1] = test system: E. coli/pET-22b (Control); experiment: Disk diffusion assay; assay type: cell-based, E. coli BL21 Rosetta (DE3); conditions: Escherichia coli, 24 h, read-out: inhibition zones
# Method: The E. coli BL21 Rosetta (DE3) strains containing pET22b, and its carrying cph, cph001, cph002, cph003, aph(3′)-Ia, and mphB plasmids were cultured overnight. The cells, respectively, were then diluted to 0.1 OD600 in molten LB agar with 100 μg/mL ampicillin and 500 μM IPTG for the disk diffusion assay. The cells with ampicillin and IPTG were mixed well with molten LB agar and then poured into 10 cm diameter Petri dishes. […] The Petri dishes were placed in the incubator at 37 °C and the inhibition zones were observed after 24 hr.
# [2] = Escherichia coli, 24 h, read-out: inhibition zones
smiles,measurement,setting,value
N=C1NCCC([C@@H]2NC(=O)/C(=C/NC(N)=O)NC(=O)[C@H](CNC(=O)C[C@@H](N)CCCN)NC(=O)[C@H](CO)NC(=O)[C@@H](N)CNC2=O)N1 (stereo in doubt) [CMN IIA],Km,Cph,460 µM
same,phosphotransferase activity of variant,Cph001^D189A; CMN IIA + ATP,complete loss of phosphotransferase activity
same,"absorbance at 340 nm, Average of triplicate",Cph001^D189A; time 00:00:00,1.495
same,"absorbance at 340 nm, Average of triplicate",Cph001^D189A; time 00:01:00,1.482
same,"absorbance at 340 nm, Average of triplicate",Cph001^D189A; time 00:02:00,1.504
same,"absorbance at 340 nm, Average of triplicate",Cph001^D189A; time 00:03:00,1.549
same,"absorbance at 340 nm, Average of triplicate",Cph001^D189A; time 00:04:00,1.574
same,"absorbance at 340 nm, Average of triplicate",Cph001^D189A; time 00:05:00,1.588
same,"absorbance at 340 nm, Average of triplicate",Cph001^D189A; time 00:06:00,1.596
same,"absorbance at 340 nm, Average of triplicate",Cph001^D189A; time 00:07:00,1.602
same,"absorbance at 340 nm, Average of triplicate",Cph001^D189A; time 00:08:00,1.612
same,"absorbance at 340 nm, Average of triplicate",Cph001^D189A; time 00:09:00,1.625
same,"absorbance at 340 nm, Average of triplicate",Cph001^D189A; time 00:10:00,1.641
same,"absorbance at 340 nm, Average of triplicate",Cph001^D189A; time 00:11:00,1.654
same,"absorbance at 340 nm, Average of triplicate",Cph001^D189A; time 00:12:00,1.662
same,"absorbance at 340 nm, Average of triplicate",Cph001^D189A; time 00:13:00,1.67
same,"absorbance at 340 nm, Average of triplicate",Cph001^D189A; time 00:14:00,1.682
same,"absorbance at 340 nm, Average of triplicate",Cph001^D189A; time 00:15:00,1.69
same,phosphotransferase activity of variant,Cph001^D189N; CMN IIA + ATP,complete loss of phosphotransferase activity
same,"absorbance at 340 nm, Average of triplicate",Cph001^D189N; time 00:00:00,1.495
same,"absorbance at 340 nm, Average of triplicate",Cph001^D189N; time 00:01:00,1.553
same,"absorbance at 340 nm, Average of triplicate",Cph001^D189N; time 00:02:00,1.591
same,"absorbance at 340 nm, Average of triplicate",Cph001^D189N; time 00:03:00,1.622
same,"absorbance at 340 nm, Average of triplicate",Cph001^D189N; time 00:04:00,1.655
same,"absorbance at 340 nm, Average of triplicate",Cph001^D189N; time 00:05:00,1.685
same,"absorbance at 340 nm, Average of triplicate",Cph001^D189N; time 00:06:00,1.709
same,"absorbance at 340 nm, Average of triplicate",Cph001^D189N; time 00:07:00,1.733
same,"absorbance at 340 nm, Average of triplicate",Cph001^D189N; time 00:08:00,1.755
same,"absorbance at 340 nm, Average of triplicate",Cph001^D189N; time 00:09:00,1.775
same,"absorbance at 340 nm, Average of triplicate",Cph001^D189N; time 00:10:00,1.791
same,"absorbance at 340 nm, Average of triplicate",Cph001^D189N; time 00:11:00,1.804
same,"absorbance at 340 nm, Average of triplicate",Cph001^D189N; time 00:12:00,1.814
same,"absorbance at 340 nm, Average of triplicate",Cph001^D189N; time 00:13:00,1.823
same,"absorbance at 340 nm, Average of triplicate",Cph001^D189N; time 00:14:00,1.83
same,"absorbance at 340 nm, Average of triplicate",Cph001^D189N; time 00:15:00,1.791
same,resistance in disk diffusion assay,E. coli/cph001; E. coli harboring cph001,becomes resistant
same,zone of inhibition at 12.5 µg/disc,E. coli/cph001; [2],9.5 mm
same,zone of inhibition at 50 µg/disc,E. coli/cph001; [2],13 mm
same,zone of inhibition at 100 µg/disc,E. coli/cph001; [2],15 mm
same,zone of inhibition at 200 µg/disc,E. coli/cph001; [2],18 mm
same,resistance in disk diffusion assay,E. coli/cph003; E. coli harboring cph003,becomes resistant
same,zone of inhibition at 12.5 µg/disc,E. coli/cph003; [2],13 mm
same,zone of inhibition at 50 µg/disc,E. coli/cph003; [2],16 mm
same,zone of inhibition at 100 µg/disc,E. coli/cph003; [2],20 mm
same,zone of inhibition at 200 µg/disc,E. coli/cph003; [2],22 mm
same,resistance in disk diffusion assay,E. coli/cph002; E. coli harboring cph002,becomes resistant
same,zone of inhibition at 12.5 µg/disc,E. coli/cph002; [2],14 mm
same,zone of inhibition at 50 µg/disc,E. coli/cph002; [2],17 mm
same,zone of inhibition at 100 µg/disc,E. coli/cph002; [2],19.5 mm
same,zone of inhibition at 200 µg/disc,E. coli/cph002; [2],23 mm
same,resistance in disk diffusion assay,E. coli/cph; E. coli harboring cph,becomes resistant
same,zone of inhibition at 50 µg/disc,E. coli/cph; [2],11 mm
same,zone of inhibition at 100 µg/disc,E. coli/cph; [2],13 mm
same,zone of inhibition at 200 µg/disc,E. coli/cph; [2],15.5 mm
same,zone of inhibition at 12.5 µg/disc,[1],17 mm
same,zone of inhibition at 50 µg/disc,[1],22 mm
same,zone of inhibition at 100 µg/disc,[1],24 mm
same,zone of inhibition at 200 µg/disc,[1],27.5 mm
